Laboratory results reported in patent US8288409B2, “Quinolizidinone M1 receptor positive allosteric modulators” (Merck Sharp & Dohme Corp., priority 2008, dated 2012).
Where two headings read alike, the source gives them in different places.

Biological target: T1, acetylcholine muscarinic M1 receptor (Homo sapiens, UniProt P11229)
T1 construct: expressed in transfected cells; host or cells: CHOnfat cells (CHO; also called CHOK1/hM1)
T1 sequence (P11229 1-460): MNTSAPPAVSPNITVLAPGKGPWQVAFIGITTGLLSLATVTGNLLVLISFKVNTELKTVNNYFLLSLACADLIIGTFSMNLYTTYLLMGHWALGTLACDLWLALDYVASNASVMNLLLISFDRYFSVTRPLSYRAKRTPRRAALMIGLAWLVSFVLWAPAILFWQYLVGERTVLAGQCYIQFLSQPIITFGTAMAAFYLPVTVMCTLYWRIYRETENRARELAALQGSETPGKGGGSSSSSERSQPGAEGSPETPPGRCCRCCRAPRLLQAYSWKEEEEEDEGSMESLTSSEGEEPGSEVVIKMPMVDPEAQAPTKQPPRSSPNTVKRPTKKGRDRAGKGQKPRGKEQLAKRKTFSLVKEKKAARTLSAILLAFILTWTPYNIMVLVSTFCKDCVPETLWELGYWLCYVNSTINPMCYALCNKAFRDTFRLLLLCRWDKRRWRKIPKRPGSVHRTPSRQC
Test: FLIPR intracellular calcium assay for M1 receptor positive allosteric modulator activity
Format: cell-based
Experimental: The assay studies the effect of one or several concentrations of test compounds on basal or acetylcholine-stimulated Ca^2+ levels using FLIPR.
Compounds are prepared and subjected to a preincubation period of 4 min. Thereafter, a single EC20 concentration of acetylcholine is added to each well (3 nM final). The intracellular Ca^2+ level of each sample is measured and compared to an acetylcholine control to determine any modulatory activity.
Cells: CHOnfat/hM1, hM2, hM3 or hM4 cells are plated 24 hr before the assay at a density of 18,000 cells/well (100 μl) in a 384 well plate. CHOnfat/hM1 and CHOnfat/hM3 Growth Medium: 90% DMEM (Hi Glucose); 10% HI FBS; 2 mM L-glutamine; 0.1 mM NEAA; Pen-Strep; and 1 mg/ml Geneticin, are added. For M2Gqi5CHOnfat and M4Gqi5CHOnfat cells, an additional 600 μg/ml hygromycin is added.
Buffers. […] Dye Loading Buffer: Assay Buffer plus 1% Fetal Bovine Serum and Fluo-4AM/Pluronic Acid Mixture. […] 20% Pluronic Acid Solution stock, with a concentration of 0.04% in Buffer, 0.02% in Assay.
65 μL of 2 mM Fluo-4AM are mixed with 130 of 20% Pluronic Acid. The resulting solution and 650 μL FBS is added to the assay buffer for a total volume of 65 mL. Positive Controls: 4-Br-A23187: 10 mM in DMSO; final concentration 10 μM. Acetylcholine: 10 mM in water, working stock at both 20 μM and 30 μM in assay buffer, final concentration of 10 μM. This is used to check the maximum stimulation of the CHOK1/hM1 cells. 20 μM (2×) acetylcholine is added in the preincubation part of the assay, and the 30 μM (3×) stock is added in the second part. (EC20)Acetylcholine: 10 mM in water, working stock of 9 nM (3×), and final concentration in assay is 3 nM. This is used after the preincubation with test compounds. Addition of the EC20 Acetylcholine to each well with a test compound will ascertain any modulator activity. 24 wells contain 3 nM Acetylcholine alone as a control.
Determining Activity of Putative Compounds:
Four 96-well plates are combined into a 384-well plate using Mosquito Nanolitre Pipetting System by transferring 1 μl of serial diluted compounds to each well, and 1 mM acetylcholine (100× stock concentration) were added as a control. Using Temo, 49 μl assay buffer is added to each well of the 384-well plate right before assay.
In a 96-well Whatman 2 ml Uniplate, 9 nM Acetylcholine (3×) is pipetted into wells corresponding to the screening compounds and into control wells. The 30 μM acetylcholine control (3×) is added into control wells and the 3× agonist plate is transferred into a 384-well plate.
Cells are washed three times with 100 μL of buffer, leaving 30 μL of buffer in each well. Using Multimek, 30 μL of Dye Loading Buffer is added into each well and incubated at 37° C., 5% CO2 for up to one hr.
After 60 min, the cells are washed three times with 100 μL of buffer, leaving 30 μL of buffer in each well. The cell plate, screening plate, and agonist addition plates are placed on the platform in the FLIPR and the door is closed. A signal test to check background fluorescence and basal fluorescence signal is performed. Laser intensity is adjusted if necessary.
4 min of preincubation with the test compounds is provided to determine any agonist activity on the M1 receptor by comparison to the 1 mM acetylcholine control. After preincubation, the EC20 value of acetylcholine (3 nM final) is added to determine any modulator activity.

[1] = CHOnfat/hM1 cells, 4 min preincubation, then EC20 acetylcholine (3 nM final), intracellular Ca2+ by FLIPR384, read-out: IP Value (inflection point)

Structure (SMILES)	EC50 [1] [µM]	EC50 [µM]
O=C(O)c1cc(CN2CCC(c3ccc(C(F)(F)F)cc3)CC2)c2ccccn2c1=O [Example 1, 4-oxo-1-({4-[4-(trifluoromethyl)phenyl]piperidin-1-yl}methyl)-4H-quinolizine-3-carboxylic Acid]	0.548	–
O=C(O)c1cc(CN2CCCCC2c2ccncc2)c2ccccn2c1=O (stereo not drawn) [Example 6]	2.25	–
O=C(O)c1cc(CN2CCCCC2c2nc3cc(F)ccc3[nH]2)c2ccccn2c1=O (stereo not drawn) [Example 14]	0.508	–
O=C(O)c1cc(CN2CCCC(O)C2)c2ccccn2c1=O (stereo not drawn) [Example 24]	8.7	–
O=C(O)c1cc(CN2CCC(c3ccccc3)CC2)c2ccccn2c1=O [Example 25]	–	1.34
O=C(O)c1cc(CN2CCC(c3c[nH]c4ccc(O)cc34)CC2)c2ccccn2c1=O [Example 83]	0.277	–
O=C(O)c1cc(CN2CCC(c3nc4ccccc4[nH]3)CC2)c2ccccn2c1=O [Example 85]	0.122	–
O=C(O)c1cc(CN2CCC(c3nc4cc(F)ccc4[nH]3)CC2)c2ccccn2c1=O [Example 86]	0.042	–
Cn1c(C2CCN(Cc3cc(C(=O)O)c(=O)n4ccccc34)CC2)nc2ccccc21 [Example 91, 1-{[4-(1-methyl-1H-benzimidazol-2-yl)piperidin-1-yl]methyl}-4-oxo-4H-quinolizine-3-carboxylic Acid]	30.5	–
